The record followed here is ChEMBL document CHEMBL1127271, “Synthesis of 1,2,4-triazine-(2H,4H)-3,5,-dione anticoccidial agents via palladium-catalyzed cross-coupling reactions” (Bioorg Med Chem Lett, 1994).

Active and inactive are the calls of the source. The rule behind the calls is not given here.

For the experiment, the system named is Eimeria tenella. Nature of the experiment: In vivo anti-coccidial activity determined at a dose of <16 p.p.m. (battery efficacy against Eimeria tenella); IA means Inactive. The experiment is classed as functional, organism-based.
`CC1CC=C(c2c(Cl)cc(-n3ncc(=O)[nH]c3=O)cc2Cl)CC1` (centres undefined): the outcome was inactive. Next, `O=C(O)c1nn(-c2ccc(I)c(C(F)(F)F)c2)c(=O)[nH]c1=O`: “inactive”. Next, “[1-(2,5-Dimethoxy-phenyl)-vinyl]-trimethyl-stannane”: “inactive”; “Trimethyl-(4-methyl-cyclohex-1-enyl)-stannane”: “inactive”; `C=C(c1c(Cl)cc(-n2ncc(=O)[nH]c2=O)cc1Cl)C1CCCCC1`: “inactive”. The value for `O=c1cnn(-c2ccc(I)c(C(F)(F)F)c2)c(=O)[nH]1` was “inactive”; that for (1-Cyclohexyl-vinyl)-trimethyl-stannane was “inactive”; that for “(1-Cyclopentyl-vinyl)-trimethyl-stannane” was “inactive”.

`C=C(c1c(Cl)cc(-n2ncc(=O)[nH]c2=O)cc1Cl)C1CCCC1`: the outcome was inactive.
